Assay results as given in PubChem BioAssay AID248 (DTP/NCI, 2004).
Several values for one entry are separate records, joined by “and”; a condition that tells them apart may be missing. Equal entries are not always repeated. Toxic doses and inconclusive results are not listed. Rule as the data show it: active = T/C of 150% or more; inactive = T/C below 125%.

Tested on: L1210 leukemia ip in BDF1 mice, survival T/C
Experiment: NCI In Vivo Anticancer Drug Screen. Data for tumor model L1210 Leukemia (intraperitoneal) in B6D2F1 (BDF1) mice
Conditions: endpoint: mean survival time, higher = longer survival
Method in brief: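 Transplanted-tumor mice were given test agent; controls received vehicle only. Survival readings from the two groups were divided (treated over control).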

[1] = dose: 100.0 mg/kg/injection, schedule: Q01DX009 (ip), vehicle: saline with Tween-80
[2] = dose: 100.0 mg/kg/injection, schedule: Q04DX003 (ip), vehicle: saline with Tween-80
[3] = dose: 200.0 mg/kg/injection, schedule: Q01DX009 (ip), vehicle: saline with Tween-80
[4] = dose: 200.0 mg/kg/injection, schedule: Q04DX003 (ip), vehicle: saline with Tween-80
[5] = dose: 400.0 mg/kg/injection, schedule: Q01DX009 (ip), vehicle: saline with Tween-80
[6] = dose: 400.0 mg/kg/injection, schedule: Q04DX003 (ip), vehicle: saline with Tween-80
[7] = dose: 100.0 mg/kg/injection, schedule: Q01DX001 (ip), vehicle: carboxymethylcellulose (CMC)
[8] = dose: 200.0 mg/kg/injection, schedule: Q01DX001 (ip), vehicle: carboxymethylcellulose (CMC)
[9] = dose: 400.0 mg/kg/injection, schedule: Q01DX001 (ip), vehicle: carboxymethylcellulose (CMC)
[10] = dose: 25.0 mg/kg/injection, schedule: Q01DX009 (ip), vehicle: saline with Tween-80
[11] = dose: 50.0 mg/kg/injection, schedule: Q01DX009 (ip), vehicle: saline with Tween-80

Measured: T/C

COc1ccc(OC)c(NC(=S)NC(=O)c2ccc(Cl)cc2Cl)c1
inactive: dose: 100.0 mg/kg/injection, schedule: Q01DX001 (ip), vehicle: saline with Tween-80 89 % of control | [1] 100 % of control and 102 % of control | dose: 100.0 mg/kg/injection, schedule: Q04DX002 (ip), vehicle: saline with Tween-80 93 % of control and 100 % of control | [2] 105 % of control | dose: 200.0 mg/kg/injection, schedule: Q01DX001 (ip), vehicle: saline with Tween-80 86 % of control | [3] 96 % of control and 99 % of control | dose: 200.0 mg/kg/injection, schedule: Q04DX002 (ip), vehicle: saline with Tween-80 106 % of control and 107 % of control | [4] 92 % of control | dose: 400.0 mg/kg/injection, schedule: Q01DX001 (ip), vehicle: saline with Tween-80 96 % of control | [5] 89 % of control | dose: 400.0 mg/kg/injection, schedule: Q04DX002 (ip), vehicle: saline with Tween-80 93 % of control | [6] 95 % of control

COc1cc(N(CCCl)CCCl)ccc1C=Nc1cccc(Cl)c1
inactive: dose: 50.0 mg/kg/injection, schedule: Q01DX001 (ip), vehicle: carboxymethylcellulose (CMC) 114 % of control | [7] 111 % of control | [8] 100 % of control | [9] 100 % of control

O=C1c2ccccc2-c2cccc3cccc1c23
inactive: dose: 50.0 mg/kg/injection, schedule: Q01DX001 (ip), vehicle: saline sonified 94 % of control | dose: 100.0 mg/kg/injection, schedule: Q01DX001 (ip), vehicle: saline sonified 95 % of control | dose: 100.0 mg/kg/injection, schedule: Q01DX009 (ip), vehicle: gum acacia 105 % of control | dose: 200.0 mg/kg/injection, schedule: Q01DX001 (ip), vehicle: saline sonified 97 % of control | dose: 200.0 mg/kg/injection, schedule: Q01DX009 (ip), vehicle: gum acacia 96 % of control | dose: 400.0 mg/kg/injection, schedule: Q01DX009 (ip), vehicle: gum acacia 102 % of control

Cc1c2cnccc2c(C)c2c1c1ccccc1n2CCCN1C(=O)c2ccccc2C1=O
inactive: dose: 50.0 mg/kg/injection, schedule: Q04DX003 (ip), vehicle: saline with Tween-80 100 % of control | [1] 104 % of control | [2] 97 % of control | dose: 150.0 mg/kg/injection, schedule: Q01DX001 (oral), vehicle: saline with Tween-80 105 % of control | [3] 102 % of control and 107 % of control | [4] 101 % of control | dose: 300.0 mg/kg/injection, schedule: Q01DX001 (oral), vehicle: saline with Tween-80 112 % of control | [5] 111 % of control and 120 % of control | [6] 117 % of control | dose: 600.0 mg/kg/injection, schedule: Q01DX001 (oral), vehicle: saline with Tween-80 112 % of control | dose: 600.0 mg/kg/injection, schedule: Q01DX009 (ip), vehicle: saline with Tween-80 121 % of control | dose: 1200.0 mg/kg/injection, schedule: Q01DX001 (oral), vehicle: saline with Tween-80 121 % of control

CC(=O)OC1CCC2(C)C(=CCC3C2CCC2(C)C(c4cccc(=O)o4)CCC32)C1 (stereo not drawn)
inactive: dose: 100.0 mg/kg/injection, schedule: Q01DX001 (sc), vehicle: steriod suspending solution 100 % of control | dose: 200.0 mg/kg/injection, schedule: Q01DX001 (sc), vehicle: steriod suspending solution 102 % of control | dose: 400.0 mg/kg/injection, schedule: Q01DX001 (sc), vehicle: steriod suspending solution 93 % of control

Clc1ccc(C2ON2C2CCCCC2)cc1 (stereo not drawn)
inactive: [7] 95 % of control | [8] 101 % of control | [9] 101 % of control

CC(C)CCC[C@@H](C)[C@H]1CC[C@H]2[C@@H]3CC[C@H]4C[C@H]5N[C@H]5C[C@]4(C)[C@H]3CC[C@]12C
inactive: dose: 100.0 mg/kg/injection, schedule: Q01DX001 (ip), vehicle: Klucel (hydroxypropylcellulose) (HPC) 93 % of control | dose: 400.0 mg/kg/injection, schedule: Q01DX001 (ip), vehicle: Klucel (hydroxypropylcellulose) (HPC) 90 % of control

O=[N+]([O-])c1cc(/C=N\N=C\c2ccco2)ccc1Cl
inactive: dose: 5.0 mg/kg/injection, schedule: Q01DX001 (ip), vehicle: saline 100 % of control | dose: 10.0 mg/kg/injection, schedule: Q01DX001 (ip), vehicle: saline 98 % of control | dose: 20.0 mg/kg/injection, schedule: Q01DX001 (ip), vehicle: saline 96 % of control | dose: 40.0 mg/kg/injection, schedule: Q01DX001 (ip), vehicle: saline 88 % of control | dose: 80.0 mg/kg/injection, schedule: Q01DX001 (ip), vehicle: saline 88 % of control

O=C(N/N=C\c1ccc(Cl)cc1Cl)c1ccc(F)cc1
inactive: [10] 96 % of control | [11] 94 % of control | [1] 92 % of control

CCn1c2ccccc2c2ccc(C(C)=O)cc21
inactive: dose: 75.0 mg/kg/injection, schedule: Q01DX001 (ip), vehicle: carboxymethylcellulose (CMC) 95 % of control | dose: 150.0 mg/kg/injection, schedule: Q01DX001 (ip), vehicle: carboxymethylcellulose (CMC) 95 % of control | dose: 300.0 mg/kg/injection, schedule: Q01DX001 (ip), vehicle: carboxymethylcellulose (CMC) 97 % of control

N/N=C/C=N/Nc1cnccn1
inactive: dose: 100.0 mg/kg/injection, schedule: Q01DX009 (ip), vehicle: Klucel (hydroxypropylcellulose) (HPC) 106 % of control | dose: 200.0 mg/kg/injection, schedule: Q01DX009 (ip), vehicle: Klucel (hydroxypropylcellulose) (HPC) 86 % of control

Cc1ccc(N)cc1NC(=O)c1ccccc1
inactive: [7] 106 % of control | [8] 94 % of control | [9] 108 % of control

CC(C)/C=N/NC(N)=S
inactive: dose: 3.13 mg/kg/injection, schedule: Q01DX001 (ip), vehicle: Klucel (hydroxypropylcellulose) (HPC) 102 % of control | dose: 6.25 mg/kg/injection, schedule: Q01DX001 (ip), vehicle: Klucel (hydroxypropylcellulose) (HPC) 118 % of control | dose: 12.5 mg/kg/injection, schedule: Q01DX001 (ip), vehicle: Klucel (hydroxypropylcellulose) (HPC) 99 % of control and 102 % of control

COc1ccc(/C=N/NC(=O)c2ccc(N)cc2)cc1
inactive: dose: 100.0 mg/kg/injection, schedule: Q04DX002 (ip), vehicle: Klucel (hydroxypropylcellulose) (HPC) 106 % of control | dose: 200.0 mg/kg/injection, schedule: Q04DX002 (ip), vehicle: Klucel (hydroxypropylcellulose) (HPC) 100 % of control | dose: 400.0 mg/kg/injection, schedule: Q04DX002 (ip), vehicle: Klucel (hydroxypropylcellulose) (HPC) 95 % of control

O=c1[nH][nH]c(-c2ccccc2)c1Cc1ccccc1
inactive: dose: 100.0 mg/kg/injection, schedule: Q04DX003 (ip), vehicle: saline 95 % of control | dose: 200.0 mg/kg/injection, schedule: Q04DX003 (ip), vehicle: saline 96 % of control | dose: 400.0 mg/kg/injection, schedule: Q04DX003 (ip), vehicle: saline 96 % of control

FC(F)(F)c1cccc(-c2nc3nc(Cl)c(Cl)nc3[nH]2)c1
inactive: dose: 12.5 mg/kg/injection, schedule: Q01DX009 (ip), vehicle: saline with Tween-80 93 % of control | [10] 98 % of control | [11] 90 % of control

NC(N)=N/N=C/CO
inactive: dose: 7.5 mg/kg/injection, schedule: Q01DX Z (oral), vehicle: saline 106 % of control | dose: 15.0 mg/kg/injection, schedule: Q01DX Z (oral), vehicle: saline 100 % of control | dose: 30.0 mg/kg/injection, schedule: Q01DX Z (oral), vehicle: saline 107 % of control | dose: 60.0 mg/kg/injection, schedule: Q01DX Z (oral), vehicle: saline 101 % of control | dose: 120.0 mg/kg/injection, schedule: Q01DX Z (oral), vehicle: saline 102 % of control | dose: 240.0 mg/kg/injection, schedule: Q01DX Z (oral), vehicle: saline 110 % of control

Cc1cnc(N)cn1 (tested in a mixture with another compound)
inactive: dose: 100.0 mg/kg/injection, schedule: Q04DX003 (ip), vehicle: Klucel (hydroxypropylcellulose) (HPC) 102 % of control | dose: 200.0 mg/kg/injection, schedule: Q04DX003 (ip), vehicle: Klucel (hydroxypropylcellulose) (HPC) 109 % of control | dose: 400.0 mg/kg/injection, schedule: Q04DX003 (ip), vehicle: Klucel (hydroxypropylcellulose) (HPC) 88 % of control

COC1=C2C=[N+](C)C3C(=C2C=CC1OC)Cc1cc(OC)c(OC)cc13 (stereo not drawn)
inactive: dose: 50.0 mg/kg/injection, schedule: Q01DX001 (ip), vehicle: saline 98 % of control | dose: 100.0 mg/kg/injection, schedule: Q01DX001 (ip), vehicle: saline 93 % of control | dose: 200.0 mg/kg/injection, schedule: Q01DX001 (ip), vehicle: saline 102 % of control | dose: 400.0 mg/kg/injection, schedule: Q01DX001 (ip), vehicle: saline 96 % of control
